≈ marks a conversion by molar mass, not a printed value.
Key:
Assay type in all cases: functional
[1] = system: Mycobacterium tuberculosis; test: Antitubercular activity against Mycobacterium tuberculosis H37Rv
[2] = system: Mycobacterium tuberculosis; test: Antitubercular activity against Mycobacterium tuberculosis SS3
[3] = system: Mycobacterium tuberculosis; test: Antitubercular activity against Mycobacterium tuberculosis SS10
[4] = system: Mycobacterium tuberculosis; test: Antitubercular activity against Mycobacterium tuberculosis SS4
[5] = system: Mycobacterium tuberculosis; test: Antitubercular activity against Mycobacterium tuberculosis SS11
[6] = system: Mycobacterium tuberculosis; test: Antitubercular activity against Mycobacterium tuberculosis SS2
[7] = system: Mycobacterium tuberculosis; test: Antitubercular activity against Mycobacterium tuberculosis SS6
[8] = system: Mycobacterium tuberculosis; test: Antitubercular activity against Mycobacterium tuberculosis SS1
[9] = system: Mycobacterium tuberculosis; test: Antitubercular activity against Mycobacterium tuberculosis SS7
[10] = system: Mycobacterium tuberculosis; test: Antitubercular activity against Mycobacterium tuberculosis SS9
[11] = system: Mycobacterium tuberculosis; test: Antitubercular activity against Mycobacterium tuberculosis SS8
[12] = system: Mycobacterium tuberculosis; test: Antitubercular activity against Mycobacterium tuberculosis SS5

## CCn1cc(C(=O)O)c(=O)c2ccc3nn(C)nc3c21
[1]
  MIC90: 5 mg/L (≈ 18.4 µM)

## Cn1nnc2c3c(ccc21)c(=O)c(C(=O)O)cn3Cc1ccccc1
[2]
  MIC90: > 32 mg/L
[1]
  MIC90: > 32 mg/L
[3]
  MIC90: > 32 mg/L
[4]
  MIC90: > 32 mg/L
[5]
  MIC90: > 32 mg/L
[6]
  MIC90: > 32 mg/L
[7]
  MIC90: > 32 mg/L
[8]
  MIC90: > 32 mg/L
[9]
  MIC90: > 32 mg/L
[10]
  MIC90: > 32 mg/L
[11]
  MIC90: > 32 mg/L
[12]
  MIC90: > 32 mg/L

## CCOC(=O)c1cn(Cc2ccc(C)cc2)c2c(ccc3c2nnn3C)c1=O
[2]
  MIC90: > 32 mg/L
[1]
  MIC90: > 32 mg/L
[3]
  MIC90: > 32 mg/L
[4]
  MIC90: > 32 mg/L
[5]
  MIC90: > 32 mg/L
[6]
  MIC90: > 32 mg/L
[7]
  MIC90: > 32 mg/L
[8]
  MIC90: > 32 mg/L
[9]
  MIC90: > 32 mg/L
[10]
  MIC90: > 32 mg/L
[11]
  MIC90: > 32 mg/L
[12]
  MIC90: > 32 mg/L

## C=CCn1cc(C(=O)OCC)c(=O)c2ccc3c(nnn3C)c21
[2]
  MIC90: > 32 mg/L
[1]
  MIC90: > 32 mg/L
[3]
  MIC90: > 32 mg/L
[4]
  MIC90: > 32 mg/L
[5]
  MIC90: > 32 mg/L
[6]
  MIC90: > 32 mg/L
[7]
  MIC90: > 32 mg/L
[8]
  MIC90: > 32 mg/L
[9]
  MIC90: > 32 mg/L
[10]
  MIC90: > 32 mg/L
[11]
  MIC90: > 32 mg/L
[12]
  MIC90: > 32 mg/L

## Cc1ccc(Cn2cc(C(=O)O)c(=O)c3ccc4c(nnn4C)c32)cc1
[2]
  MIC90: > 32 mg/L
[1]
  MIC90: > 32 mg/L
[3]
  MIC90: > 32 mg/L
[4]
  MIC90: > 32 mg/L
[5]
  MIC90: > 32 mg/L
[6]
  MIC90: > 32 mg/L
[7]
  MIC90: > 32 mg/L
[8]
  MIC90: > 32 mg/L
[9]
  MIC90: > 32 mg/L
[10]
  MIC90: > 32 mg/L
[11]
  MIC90: > 32 mg/L
[12]
  MIC90: > 32 mg/L

## CCn1cc(C(=O)O)c(=O)c2ccc3c(nnn3C)c21
[2]
  MIC90: 3.2 mg/L (≈ 11.8 µM)
[1]
  MIC90: 1.6 mg/L (≈ 5.88 µM)
[3]
  MIC90: 1.6 mg/L (≈ 5.88 µM)
[4]
  MIC90: 3.2 mg/L (≈ 11.8 µM)
[5]
  MIC90: 1.6 mg/L (≈ 5.88 µM)
[6]
  MIC90: 0.8 mg/L (≈ 2.94 µM)
[7]
  MIC90: 1.6 mg/L (≈ 5.88 µM)
[8]
  MIC90: 1.6 mg/L (≈ 5.88 µM)
[9]
  MIC90: 3.2 mg/L (≈ 11.8 µM)
[10]
  MIC90: 1.6 mg/L (≈ 5.88 µM)
[11]
  MIC90: 1.6 mg/L (≈ 5.88 µM)
[12]
  MIC90: 1.6 mg/L (≈ 5.88 µM)

## CCCCn1cc(C(=O)O)c(=O)c2ccc3c(nnn3C)c21
[2]
  MIC90: > 32 mg/L
[1]
  MIC90: > 32 mg/L
[3]
  MIC90: > 32 mg/L
[4]
  MIC90: > 32 mg/L
[5]
  MIC90: > 32 mg/L
[6]
  MIC90: > 32 mg/L
[7]
  MIC90: > 32 mg/L
[8]
  MIC90: > 32 mg/L
[9]
  MIC90: > 32 mg/L
[10]
  MIC90: > 32 mg/L
[11]
  MIC90: > 32 mg/L
[12]
  MIC90: > 32 mg/L

## CCOC(=O)c1cn(CCc2ccccc2)c2c(ccc3c2nnn3C)c1=O
[2]
  MIC90: > 32 mg/L
[1]
  MIC90: > 32 mg/L
[3]
  MIC90: > 32 mg/L
[4]
  MIC90: > 32 mg/L
[5]
  MIC90: > 32 mg/L
[6]
  MIC90: > 32 mg/L
[7]
  MIC90: > 32 mg/L
[8]
  MIC90: > 32 mg/L
[9]
  MIC90: > 32 mg/L
[10]
  MIC90: > 32 mg/L
[11]
  MIC90: > 32 mg/L
[12]
  MIC90: > 32 mg/L

## Cn1nnc2c3c(ccc21)c(=O)c(C(=O)O)cn3CCc1ccccc1
[2]
  MIC90: 3.2 mg/L (≈ 9.19 µM)
[1]
  MIC90: 0.8 mg/L (≈ 2.3 µM)
[3]
  MIC90: 3.2 mg/L (≈ 9.19 µM)
[4]
  MIC90: 3.2 mg/L (≈ 9.19 µM)
[5]
  MIC90: 0.8 mg/L (≈ 2.3 µM)
[6]
  MIC90: 0.8 mg/L (≈ 2.3 µM)
[7]
  MIC90: 3.2 mg/L (≈ 9.19 µM)
[8]
  MIC90: 0.8 mg/L (≈ 2.3 µM)
[9]
  MIC90: 3.2 mg/L (≈ 9.19 µM)
[10]
  MIC90: 0.8 mg/L (≈ 2.3 µM)
[11]
  MIC90: 0.8 mg/L (≈ 2.3 µM)
[12]
  MIC90: 3.2 mg/L (≈ 9.19 µM)

## CCOC(=O)c1cn(Cc2ccc(Br)cc2)c2c(ccc3c2nnn3C)c1=O
[2]
  MIC90: > 32 mg/L
[1]
  MIC90: > 32 mg/L
[3]
  MIC90: > 32 mg/L
[4]
  MIC90: > 32 mg/L
[5]
  MIC90: > 32 mg/L
[6]
  MIC90: > 32 mg/L
[7]
  MIC90: > 32 mg/L
[8]
  MIC90: > 32 mg/L
[9]
  MIC90: > 32 mg/L
[10]
  MIC90: > 32 mg/L
[11]
  MIC90: > 32 mg/L
[12]
  MIC90: > 32 mg/L

## CCOC(=O)c1cn(C)c2c(ccc3c2nnn3C)c1=O
[2]
  MIC90: 0.5 mg/L (≈ 1.75 µM)
[1]
  MIC90: 0.5 mg/L (≈ 1.75 µM)
[3]
  MIC90: 0.5 mg/L (≈ 1.75 µM)
[4]
  MIC90: 2 mg/L (≈ 6.99 µM)
[5]
  MIC90: 0.5 mg/L (≈ 1.75 µM)
[6]
  MIC90: 0.5 mg/L (≈ 1.75 µM)
[7]
  MIC90: 0.5 mg/L (≈ 1.75 µM)
[8]
  MIC90: 0.5 mg/L (≈ 1.75 µM)
[9]
  MIC90: 0.5 mg/L (≈ 1.75 µM)
[10]
  MIC90: 0.5 mg/L (≈ 1.75 µM)
[11]
  MIC90: 0.5 mg/L (≈ 1.75 µM)
[12]
  MIC90: 0.5 mg/L (≈ 1.75 µM)
